Test results as given in patent US10508120B2, “TYK2 inhibitors and uses thereof” (Nimbus Lakshmi, Inc., priority 2017, dated 2019).

How the values were obtained:
[1] = molecular target: human TYK2 (JH2domain-pseudokinase) (Homo sapiens (Human), UniProt P29597); assay: TYK2 JH2 Domain Binding Assay (KINOMEscan)
Procedure, shortened: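 Pseudokinase domain binding was measured by qPCR of tagged, bead-retained kinase after 1 h room-temperature competition, with 0.9% DMSO and compound up to 30,000 nM in 3-fold steps. Hill-equation Kd, duplicate.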

Tyk2 kinase domain (DH1) = Tyk2 kinase domain (DH1) (Homo sapiens (Human), UniProt P29597); assay: Tyk2 Radioactive Kinase Assay; type: biochemical; settings: compound at 10 μM; ATP 10 μM; read-out: Tyk2 JH1% Inhibition @ 10 μM
Tyk2 kinase domain (DH1), sequence (P29597 897-1176): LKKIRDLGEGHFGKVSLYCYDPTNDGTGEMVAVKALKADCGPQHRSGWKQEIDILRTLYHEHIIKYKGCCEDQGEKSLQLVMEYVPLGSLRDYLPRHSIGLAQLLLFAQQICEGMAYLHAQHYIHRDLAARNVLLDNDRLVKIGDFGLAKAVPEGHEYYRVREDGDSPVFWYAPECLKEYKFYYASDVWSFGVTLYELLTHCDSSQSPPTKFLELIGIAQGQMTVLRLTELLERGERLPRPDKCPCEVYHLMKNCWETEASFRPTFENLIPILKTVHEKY
Procedure, shortened: (§1)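 Single-point screen: 10 μM test compound, radioactive kinase read-out, percent inhibition reported for each kinase domain.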

JAK2 kinase domain (JH1) = JAK2 kinase domain (JH1) (Homo sapiens (Human), UniProt O60674); assay: JAK2 Radioactive Kinase Assay; type: biochemical; settings: compound at 10 μM; ATP 10 μM; read-out: JAK2 JH1% Inhibition @ 10 μM
JAK2 kinase domain (JH1), sequence (O60674 849-1124): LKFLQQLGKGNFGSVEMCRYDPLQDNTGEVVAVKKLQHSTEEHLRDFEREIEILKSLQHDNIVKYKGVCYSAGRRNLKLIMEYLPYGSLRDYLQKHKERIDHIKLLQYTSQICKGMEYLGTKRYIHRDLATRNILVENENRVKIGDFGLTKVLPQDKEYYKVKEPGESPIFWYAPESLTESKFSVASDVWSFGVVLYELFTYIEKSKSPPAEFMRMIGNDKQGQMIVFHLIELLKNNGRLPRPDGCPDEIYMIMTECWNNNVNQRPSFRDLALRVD
Procedure, shortened: as §1

[2] = molecular target: JAK2/JAK2 homdimeric complex (Homo sapiens (Human), UniProt O60674); assay: GM-CSF Induced pSTAT5 in Human PBMC; type: cell-based; settings: GM-CSF 5 ng/mL for 20 minutes, pSTAT5 by MSD, read-out: PBMC_GMCSF_pSTAT5 IC50
JAK2/JAK2 homdimeric complex, sequence (O60674 whole entry): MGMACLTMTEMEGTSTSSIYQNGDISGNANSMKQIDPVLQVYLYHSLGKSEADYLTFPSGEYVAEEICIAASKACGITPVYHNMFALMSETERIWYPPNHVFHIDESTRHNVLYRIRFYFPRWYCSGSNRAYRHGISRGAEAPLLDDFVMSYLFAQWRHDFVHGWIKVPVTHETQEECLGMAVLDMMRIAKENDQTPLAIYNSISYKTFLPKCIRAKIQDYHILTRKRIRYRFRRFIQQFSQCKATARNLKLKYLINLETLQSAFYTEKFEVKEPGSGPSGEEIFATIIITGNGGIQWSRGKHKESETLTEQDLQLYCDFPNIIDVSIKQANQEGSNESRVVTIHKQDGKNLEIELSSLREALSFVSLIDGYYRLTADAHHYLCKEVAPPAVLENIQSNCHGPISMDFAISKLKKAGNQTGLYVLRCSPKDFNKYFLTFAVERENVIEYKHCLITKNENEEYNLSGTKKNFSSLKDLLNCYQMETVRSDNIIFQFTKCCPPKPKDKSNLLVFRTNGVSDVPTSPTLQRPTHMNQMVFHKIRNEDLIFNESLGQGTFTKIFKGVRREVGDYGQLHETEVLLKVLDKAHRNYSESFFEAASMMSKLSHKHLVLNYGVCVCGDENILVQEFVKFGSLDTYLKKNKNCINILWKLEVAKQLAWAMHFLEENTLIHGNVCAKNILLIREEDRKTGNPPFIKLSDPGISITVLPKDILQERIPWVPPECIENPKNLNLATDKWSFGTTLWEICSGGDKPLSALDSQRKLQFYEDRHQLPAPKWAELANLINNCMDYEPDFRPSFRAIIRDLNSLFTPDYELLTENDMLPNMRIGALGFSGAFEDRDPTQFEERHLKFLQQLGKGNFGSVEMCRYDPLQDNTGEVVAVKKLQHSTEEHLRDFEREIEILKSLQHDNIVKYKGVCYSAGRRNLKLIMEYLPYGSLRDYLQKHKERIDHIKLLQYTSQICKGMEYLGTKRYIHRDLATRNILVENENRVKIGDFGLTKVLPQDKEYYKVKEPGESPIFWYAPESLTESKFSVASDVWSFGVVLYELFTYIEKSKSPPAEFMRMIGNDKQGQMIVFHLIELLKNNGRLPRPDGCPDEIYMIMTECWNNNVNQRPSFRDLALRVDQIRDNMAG
JAK2/JAK2 homdimeric complex, sequence (P32927 17-897 partner): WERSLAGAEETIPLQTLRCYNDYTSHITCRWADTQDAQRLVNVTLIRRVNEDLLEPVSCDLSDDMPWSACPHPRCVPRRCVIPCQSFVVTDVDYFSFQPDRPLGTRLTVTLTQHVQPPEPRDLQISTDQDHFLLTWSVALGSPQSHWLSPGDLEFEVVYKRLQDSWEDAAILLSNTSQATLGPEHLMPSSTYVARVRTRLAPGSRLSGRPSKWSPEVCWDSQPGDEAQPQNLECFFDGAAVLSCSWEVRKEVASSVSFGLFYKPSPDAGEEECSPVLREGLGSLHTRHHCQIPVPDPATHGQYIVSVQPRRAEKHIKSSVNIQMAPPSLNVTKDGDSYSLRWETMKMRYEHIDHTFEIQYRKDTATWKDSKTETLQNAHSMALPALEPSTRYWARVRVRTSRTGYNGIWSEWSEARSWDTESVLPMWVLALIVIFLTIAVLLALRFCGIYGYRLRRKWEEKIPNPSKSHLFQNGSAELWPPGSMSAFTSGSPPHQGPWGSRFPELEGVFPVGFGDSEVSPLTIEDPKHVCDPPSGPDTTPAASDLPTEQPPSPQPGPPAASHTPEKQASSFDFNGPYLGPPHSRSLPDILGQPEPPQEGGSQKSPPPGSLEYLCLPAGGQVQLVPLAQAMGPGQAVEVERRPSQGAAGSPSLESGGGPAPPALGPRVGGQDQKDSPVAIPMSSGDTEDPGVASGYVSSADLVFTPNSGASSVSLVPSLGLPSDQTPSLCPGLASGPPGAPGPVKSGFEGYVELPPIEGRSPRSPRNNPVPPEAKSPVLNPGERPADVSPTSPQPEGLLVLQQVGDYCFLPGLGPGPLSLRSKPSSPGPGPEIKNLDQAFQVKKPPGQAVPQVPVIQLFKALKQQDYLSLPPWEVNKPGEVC

[3] = molecular target: Tyk2/JAK2 (heterodimeric complex) (Homo sapiens (Human), UniProt P29597); assay: IL-12 Induced pSTAT4 in Human PBMC; type: cell-based; settings: 1.7 ng/mL IL-12
Tyk2/JAK2 (heterodimeric complex), sequence (P29597 whole entry, other chains not shown): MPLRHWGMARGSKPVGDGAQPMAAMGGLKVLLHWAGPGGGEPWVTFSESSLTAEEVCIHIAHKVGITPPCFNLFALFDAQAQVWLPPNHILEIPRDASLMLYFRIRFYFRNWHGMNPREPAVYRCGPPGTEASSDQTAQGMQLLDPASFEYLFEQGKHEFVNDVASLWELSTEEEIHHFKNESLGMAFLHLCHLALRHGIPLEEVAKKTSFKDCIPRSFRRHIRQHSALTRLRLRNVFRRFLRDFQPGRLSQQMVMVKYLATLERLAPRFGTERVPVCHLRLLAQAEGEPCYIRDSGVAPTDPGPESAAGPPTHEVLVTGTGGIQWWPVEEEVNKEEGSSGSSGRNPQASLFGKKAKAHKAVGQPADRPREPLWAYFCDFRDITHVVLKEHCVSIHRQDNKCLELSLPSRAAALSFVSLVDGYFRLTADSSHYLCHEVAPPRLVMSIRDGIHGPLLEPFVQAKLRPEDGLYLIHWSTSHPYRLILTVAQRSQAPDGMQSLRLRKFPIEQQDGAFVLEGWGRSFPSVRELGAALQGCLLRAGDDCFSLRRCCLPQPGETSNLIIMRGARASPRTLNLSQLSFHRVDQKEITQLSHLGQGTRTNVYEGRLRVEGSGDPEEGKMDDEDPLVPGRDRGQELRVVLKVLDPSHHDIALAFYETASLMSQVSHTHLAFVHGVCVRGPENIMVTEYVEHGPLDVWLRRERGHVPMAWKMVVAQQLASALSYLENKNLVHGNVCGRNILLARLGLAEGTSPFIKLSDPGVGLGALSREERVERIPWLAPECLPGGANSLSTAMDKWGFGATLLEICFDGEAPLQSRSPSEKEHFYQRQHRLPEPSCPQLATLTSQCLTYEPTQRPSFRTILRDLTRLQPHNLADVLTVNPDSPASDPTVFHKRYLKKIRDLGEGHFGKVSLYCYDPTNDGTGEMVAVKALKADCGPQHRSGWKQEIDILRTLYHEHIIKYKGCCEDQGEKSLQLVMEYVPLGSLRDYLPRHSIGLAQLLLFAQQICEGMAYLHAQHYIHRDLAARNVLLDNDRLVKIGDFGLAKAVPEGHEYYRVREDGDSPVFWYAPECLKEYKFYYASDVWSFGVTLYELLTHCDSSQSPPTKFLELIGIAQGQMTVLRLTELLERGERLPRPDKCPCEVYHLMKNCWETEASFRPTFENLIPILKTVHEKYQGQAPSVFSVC
From the text: The IL-12 Induced pSTAT4 assay evaluates the inhibition of IL-12 induced STAT4 phophorylation mediated by Tyk2/JAK2 (heterodimeric complex).

human TYK2 (JH2domain-pseudokinase), sequence (P29597 556-888): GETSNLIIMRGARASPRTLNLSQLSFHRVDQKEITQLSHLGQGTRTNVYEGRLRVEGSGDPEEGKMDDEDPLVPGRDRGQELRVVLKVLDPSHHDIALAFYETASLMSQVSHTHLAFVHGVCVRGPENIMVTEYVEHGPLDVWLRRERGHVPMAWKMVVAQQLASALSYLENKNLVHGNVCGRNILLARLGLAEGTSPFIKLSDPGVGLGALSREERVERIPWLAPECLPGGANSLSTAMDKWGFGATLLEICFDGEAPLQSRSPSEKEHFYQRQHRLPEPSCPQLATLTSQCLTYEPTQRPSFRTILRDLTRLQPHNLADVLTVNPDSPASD

SMILES	Kd [1] [nM]	inhibition at 10 µM (Tyk2 kinase domain (DH1)) [%]	inhibition at 10 µM (JAK2 kinase domain (JH1)) [%]	IC50 [2] [µM]	IC50 [3] [nM]
CNc1cc(Nc2cc(F)cnc2OC2CC2)nc2c(C(=O)NC3CCC3)cnn12 [I-276]	< 0.2	< 50	< 50	> 50	< 100
CNc1cc(Nc2cc(C)cnc2OC2CC2)nc2c(C(=O)NC3CC3)cnn12 [I-277]	0.2 to 1	< 50	< 50	> 50	100 to 500
CNc1cc(Nc2cc(C)cnc2OCCOC)nc2c(C(=O)NC3CC3)cnn12 [I-281]	0.2 to 1	< 50	< 50	> 2.5	100 to 500
CNc1cc(Nc2cc(C)cnc2OCCOC)nc2c(C(=O)NC3CCC3)cnn12 [I-282]	0.2 to 1	< 50	< 50	> 2.5	100 to 500
CNc1cc(Nc2cc(F)cnc2OC)nc2c(C(=O)NCC(C)(C)CO)cnn12 [I-283]	< 0.2	< 50	< 50	> 50	< 100
[2H]C([2H])([2H])Oc1ncc(F)cc1Nc1cc(NC)n2ncc(C(=O)NC3CC3)c2n1 [I-284]	< 0.2	< 50	< 50	> 12.5	< 100
CNc1cc(Nc2cc(F)cnc2OCCOC)nc2c(C(=O)N[C@H]3C[C@H]3F)cnn12 [I-285]	< 0.2	< 50	< 50	> 50	< 100
[2H]C([2H])([2H])Oc1ncc(F)cc1Nc1cc(NC)n2ncc(C(=O)NC3CCC3)c2n1 [I-288]	< 0.2	< 50	< 50	> 2.5	< 100
CNc1cc(Nc2cc(F)cnc2OCCOC)nc2c(C(=O)NC3CCC3)cnn12 [I-290]	0.2 to 1	< 50	< 50	> 2.5	< 100
CNc1cc(Nc2cccn(-c3nc(C)c(C)s3)c2=O)nc2c(C(=O)N[C@H]3C[C@H]3F)cnn12 [I-292]	0.2 to 1	< 50	< 50	> 2.5	< 100
CNc1cc(Nc2cccn(-c3ccn(C)n3)c2=O)nc2c(C(=O)NC3CC3)cnn12 [I-294]	0.2 to 1	< 50	< 50	> 12.5	< 100
CNc1cc(Nc2cccn(-c3cnn(C)c3)c2=O)nc2c(C(=O)NC3CC3)cnn12 [I-295]	< 0.2	< 50	< 50	> 50	< 100
CNc1cc(Nc2cccn(-c3cnn(C)c3)c2=O)nc2c(C(=O)N[C@H]3C[C@H]3F)cnn12 [I-296]	< 0.2	< 50	< 50	> 50	< 100
CNc1cc(Nc2cccn(-c3cncc(C)c3)c2=O)nc2c(C(=O)NC3CCC3)cnn12 [I-303]	< 0.2	< 50	< 50	> 50	< 100
CNc1cc(Nc2cccn(C3CCCCC3)c2=O)nc2c(C(=O)N[C@H]3C[C@H]3F)cnn12 [I-305]	< 0.2	< 50	< 50	> 12.5	< 100
CNc1cc(Nc2cc(Cl)cn(-c3ccn(C)n3)c2=O)nc2c(C(=O)N[C@H]3C[C@H]3F)cnn12 [I-309]	< 0.2	< 50	< 50	> 12.5	< 100
CNc1cc(Nc2cc(Cl)cn(-c3ccn(C)n3)c2=O)nc2c(C(=O)NC3CC3)cnn12 [I-310]	< 0.2	< 50	< 50	> 2.5	< 100
CNc1cc(Nc2cc(Cl)cn(-c3cnn(C)c3)c2=O)nc2c(C(=O)NC3CC3)cnn12 [I-311]	< 0.2	< 50	< 50	> 12.5	< 100
CNc1cc(Nc2cc(Cl)cn(-c3cnn(C)c3)c2=O)nc2c(C(=O)N[C@H]3C[C@H]3F)cnn12 [I-312]	< 0.2	< 50	< 50	> 12.5	< 100

SMILES	Kd [1] [nM]	inhibition at 10 µM (Tyk2 kinase domain (DH1)) [%]	inhibition at 10 µM (JAK2 kinase domain (JH1)) [%]	IC50 [2] [µM]	IC50 [3] [nM]
CNc1cc(Nc2cc(Cl)cn(-c3cc(C)n(C)n3)c2=O)nc2c(C(=O)NC3CC3)cnn12 [I-314]	< 0.2	< 50	< 50	> 2.5	< 100
CNc1cc(Nc2cc(Cl)cn(-c3cc(C)n(C)n3)c2=O)nc2c(C(=O)N[C@H]3C[C@H]3F)cnn12 [I-315]	< 0.2	< 50	< 50	> 12.5	< 100
CNc1cc(Nc2cc(Cl)cn(-c3ccnc(C)n3)c2=O)nc2c(C(=O)N[C@H]3C[C@H]3F)cnn12 [I-317]	< 0.2	< 50	< 50	> 2.5	< 100
CNc1cc(Nc2cc(Cl)cn(-c3cnc(C(=O)N(C)C)cn3)c2=O)nc2c(C(=O)NC3CC3)cnn12 [I-318]	< 0.2	< 50	< 50	> 2.5	< 100
CNc1cc(Nc2cc(Cl)cn(-c3cnc(C(=O)N(C)C)cn3)c2=O)nc2c(C(=O)N[C@H]3C[C@H]3F)cnn12 [I-319]	< 0.2	< 50	< 50	> 2.5	< 100
[2H]C([2H])([2H])Oc1ncccc1Nc1cc(NC)n2ncc(C(=O)N[C@H]3C[C@H](O)C3)c2n1 [I-321, N-((1r, 3r)-3-hydroxycyclobutyl)-5-((2-(methoxy-d3)pyridin-3-yl)amino)-7-(methylamino)pyrazolo[1,5-a]pyrimidine-3-carboxamide]	< 0.2	< 50	< 50	> 2.5	< 100
CNc1cc(Nc2cc(Cl)cn(-c3ncc(C)s3)c2=O)nc2c(C(=O)N[C@H]3C[C@H]3F)cnn12 [I-323]	< 0.2	< 50	< 50	> 2.5	< 100
CNc1cc(Nc2cc(Cl)cn(-c3cnn(C4CC4)c3C)c2=O)nc2c(C(=O)N[C@H]3C[C@H]3F)cnn12 [I-326]	< 0.2	< 50	< 50	> 50	< 100
CNc1cc(Nc2cccn(C3CCOCC3)c2=O)nc2c(C(=O)NC3CC3)cnn12 [I-329]	< 0.2	< 50	< 50	> 2.5	< 100
CNc1cc(Nc2cccn(C3CCOCC3)c2=O)nc2c(C(=O)N[C@H]3C[C@H]3F)cnn12 [I-330]	< 0.2	< 50	< 50	> 2.5	< 100
CNc1cc(Nc2cc(Cl)cn(-c3ccn(C4CC4)n3)c2=O)nc2c(C(=O)NC3CC3)cnn12 [I-331]	< 0.2	< 50	< 50	> 12.5	< 100
CNc1cc(Nc2cc(Cl)cn(-c3ccn(C4CC4)n3)c2=O)nc2c(C(=O)N[C@H]3C[C@H]3F)cnn12 [I-332]	< 0.2	< 50	< 50	> 2.5	< 100
CNc1cc(Nc2cc(Cl)cn(-c3ccc(C4CC4)nn3)c2=O)nc2c(C(=O)NC3CC3)cnn12 [I-333]	< 0.2	< 50	< 50	> 12.5	< 100
CNc1cc(Nc2cc(Cl)cn(-c3ccc(C4CC4)nn3)c2=O)nc2c(C(=O)N[C@H]3C[C@H]3F)cnn12 [I-334]	< 0.2	< 50	< 50	> 50	< 100
CNc1cc(Nc2cccn(-c3cc(C)nn3C)c2=O)nc2c(C(=O)NC3CCC3)cnn12 [I-342]	0.2 to 1	< 50	< 50	> 12.5	< 100
CNc1cc(Nc2cccn([C@H]3CC[C@H](OC)CC3)c2=O)nc2c(C(=O)NC3CC3)cnn12 [I-343]	< 0.2	< 50	< 50	> 12.5	< 100
CNc1cc(Nc2cccn([C@H]3CC[C@H](OC)CC3)c2=O)nc2c(C(=O)N[C@H]3C[C@H]3F)cnn12 [I-344]	< 0.2	< 50	< 50	> 12.5	< 100
CNc1cc(Nc2cccn([C@H]3CC[C@H](OC)CC3)c2=O)nc2c(C(=O)NC3CCC3)cnn12 [I-345]	< 0.2	< 50	< 50	> 50	< 100
